The source of these data is patent US9358229B2, “JAK PI3K/mTOR combination therapy” (Novartis Pharma AG, priority 2011, dated 2016).

Read-outs that look alike come from different tables or passages of the source.

Assay [1] has as its system JAK2 V617F Knock-in (KI) mouse. Kind of assay: C57B16/J JAK2 V617F Knock-in (KI) mouse model. Type of assay: in vivo. The following applies: KI mice treated for 5 days.
Method: Mice were treated for 5 days, then blood, spleen and bone marrow cells were obtained for further analysis.
Assay [2] deals with BaF3 JAK2V617F-luc+ cells. In words: SCID BaF3 JAK2V617F-luciferase mouse model. Type of assay: in vivo. As to conditions: daily per os, 60 mpk Compound B, 45 mpk Compound A. Here is the method: To ascertain the effects of drugs targeting PI3K/Akt/mTOR pathway alone and in combination with JAK2 inhibitor in a murine model of myeloproliferative neoplasms, a SCID BaF3 JAK2^V617F-luciferase mouse model was used. […] Female SCID mice (4-6 weeks of age; Harlan) were fed rodent standard chow and provided with water ad libitum. Mice were given 3×10^6 JAK2^V617F-luc+ cells by tail vein injection. Mice were injected with D-luciferin before imaging to detect a bioluminescence signal that is proportional to the clone burden. Baseline imaging was performed using a Photon Imager (Biospace Lab) apparatus to establish bioluminescence on day 6 after cell injection. […] Drugs treatment was administered daily per os (by mouth). Imaging was performed on day 7, 14, 21, and 28 after the first drug dose. Mice were followed daily for survival and humanely sacrificed when they developed hind limb paralysis or became moribund and considered deceased at the time at which they were sacrificed.

Assay [3] relates to CD34+ cells of healthy donors. Kind of assay: Proliferation of CD34+ cells of healthy donors. Type of assay: cell-based. As to conditions: Homo sapiens.
For assay [4], the system named is BCR/ABL mutated K562 cells. In words: Cell proliferation in K562 cells. Type of assay: cell-based. As to conditions: Homo sapiens. Here is the method:
(§1) Mouse (Ba/F3 and Ba/F3-EPOR wild-type or expressing JAK2V617F(VF)) and human (JAK2VF mutated HEL and SET2) cell lines and primary MPN CD34+ cells from patients with myelofibrosis (MF) or polycythemia vera (PV) were used; BCR/ABL mutated K562 cells were used in some experiments. Cell proliferation, colony formation, apoptosis, cell cycle and protein phosphorylation status were evaluated. Effects of drug combination were analyzed according to Chou and Talalay to calculate the combination index (CI); a CI<1.0 indicates synergistic activity.

Assay [5] relates to Ba/F3-EPOR JAK2 wild-type (wt) cells. In words: Cell proliferation in Ba/F3-EPOR JAK2 wild-type cells. Type of assay: cell-based. The following applies: Mus musculus, read-out: IC50, cell proliferation. Here is the method: as §1
Assay [6] deals with JAK2V617F-mutated HEL cells. Kind of assay: Cell proliferation and colony formation in HEL cells. Type of assay: cell-based. The following applies: Homo sapiens. Here is the method:
as §1

In assay [7] the test system is Ba/F3-EPOR JAK2V617F-mutated cells. In words: Cell proliferation in Ba/F3-EPOR JAK2V617F-mutated cells. Type of assay: cell-based. As to conditions: Mus musculus, read-out: IC50, cell proliferation. Here is the method:
as §1

For assay [8], the system named is JAK2V617F mutated patients cells. In words: Single-colony genotyping in JAK2V617F mutated patients cells. The following applies: n=7. Type of assay: cell-based, human. Here is the method: (§2) Then, the activity of RAD001 and Compound A was analyzed in primary cells from MPN patients.
Assay [9] concerns JAK2V617F-mutated SET2 cells. Kind of assay: Cell proliferation and colony formation in SET2 cells. Type of assay: cell-based. The following applies: Homo sapiens, SET-2.
The subject of assay [10] is EPO-independent colonies (EEC) of PV patients cells. In words: Erythropoietin-independent colony (EEC) assay. The following applies: for prevention of erythropoietin-independent colony (EEC) formation: primary cells from MPN patients. Type of assay: cell-based, human. Here is the method: as §1, §2
A further assay deals with CD34+ cells of MF pts. Kind of assay: Proliferation of CD34+ cells of MF patients. Type of assay: cell-based. As to conditions: Homo sapiens. Here is the method: as §1, §2
The subject of assay [11] is cell lines (Ba/F3, Ba/F3-EPOR, HEL, SET2). In words: Apoptosis (Annexin-V) in cell lines. Type of assay: cell-based. As to conditions: at maximum / highest concentrations. Here is the method: as §1

Turning to `Cn1c(=O)n(-c2ccc(C(C)(C)C#N)cc2)c2c3cc(-c4cnc5ccccc5c4)ccc3ncc21` [Compound A, 2-methyl-2-[4-(3-methyl-2-oxo-8-quinolin-3-yl-2,3-dihydro-imidazo[4,5-c]quinolin-1-yl)-phenyl]-propionitrile], the “median spleen index (ratio of spleen weight to body weight×100)” value in assay [1] was found to be 35. Besides, the reticulocyte count median in [1] came to 50 No. per HPF. Also, the “MEAN LIFESPAN” value in [2] came out at 24 days. Further, the “LIFESPAN INCREASE (%) VS VEHICLE” value in assay [2] was determined as 42%. Further, the IC50 in assay [3] stood at 780 ± 150 nM; in [4], 5000 nM; in assay [5], 676 ± 200 nM; in [6] it was 387 ± 90 nM; in assay [7], 87 ± 50 nM; in assay [9], 334 ± 40 nM. Moreover, the IC50 worked out at 20 ± 10 nM in assay [10] (Homo sapiens, PV patients cells, read-out: IC50, growth of EPO-independent colonies (EEC)) and 43 ± 20 nM with CD34+ cells of MF pts. For the same compound, in assay [8] (mean), the “reduction of VF in favor of wild-type colonies” value amounted to 40±16%. For the same compound, in assay [8] (range), the “reduction of VF in favor of wild-type colonies, range” value is listed as 18-71%. Also, the “prevention of erythropoietin-independent colony (EEC) formation” value in [10] was “low nM range”. The “apoptosis / Annexin-V +ve cells” value in [11] was 30-40%.
Take `CO[C@H]1C[C@@H]2CC[C@@H](C)[C@@](O)(O2)C(=O)C(=O)N2CCCC[C@H]2C(=O)O[C@H]([C@H](C)C[C@@H]2CC[C@@H](OCCO)[C@H](OC)C2)CC(=O)[C@H](C)/C=C(\C)[C@@H](O)[C@@H](OC)C(=O)[C@H](C)C[C@H](C)/C=C/C=C/C=C/1C` [RAD001, reference compound]: the values for the IC50 in assay [5] (Ba/F3-EPOR JAK2 wild-type cells) and in assay [7] (Ba/F3-EPOR JAK2V617F-mutated cells) were > 10000 nM and 615 ± 50 nM, respectively. Besides, the “prevention of erythropoietin-independent colony (EEC) formation” value in assay [10] is “low nM range”.
`N#CC[C@H](C1CCCC1)n1cc(-c2ncnc3[nH]ccc23)cn1` [Compound B, (3R)-3-cyclopentyl-3-[4-(7H-pyrrolo[2,3-d]pyrimidin-4-yl)-1H-pyrazol-1-yl]propanenitrile]: in [1], the reticulocyte count median is 44 No. per HPF. In addition, in assay [2], the “MEAN LIFESPAN” value was 19 days and the “LIFESPAN INCREASE (%) VS VEHICLE” value was 19%.
